{
  "source": "patent US7776366B2",
  "about": "“Method and nutraceutical composition for mammals” (MD's Choice, Inc., priority 2002, dated 2010)",
  "origin": "cited, not measured here",
  "settings": "within 30 minutes, in at least 3 species, via glucose transporter",
  "data": [
    {"smiles": "N[C@H]1C(O)O[C@H](CO)[C@@H](O)[C@@H]1O.O=S(=O)(O)O", "note": "(stereo partly shown) [Glucosamine sulphate]", "values": [
      {"measurement": "efficiency of active absorption from the digestive tract", "result": "over 90%"}
    ]}
  ]
}
